From patent publication US8722123B2, “Antimicrobial composition and use as food treatment” (priority 2008, dated 2014)
Marks after values point to notes of the source that are not given here.

Assays:
[1] = tested on: alfalfa seed; assay: Seed germination percentage; settings: treated for 1 hour at 21° C.
Experimental: To determine the germination percentage, treated and control seeds (5 gram per replicate) were placed on the surface of a plastic tray. A second tray containing 200 ml of sterile deionized water was placed with tray with seeds and water dropped into lower tray to maintain uniform moisture. The seeds were incubated at approximately 22° C. for 72 h.

[2] = tested on: S. typhimurium DT 104 on alfalfa seeds; assay: S. typhimurium DT 104 inactivation on alfalfa seeds; assay type: cell-based, Salmonella typhimurium DT104; set-up: key to S. typhimurium DT 104 counts on seeds: +: Below the minimum detection level by direct plating (<1.7 log CFU/ml), but positive by enrichment culture.; −: Negative by direct plating and enrichment culture; settings: for S. typhimurium DT 104 counts on seeds: alfalfa seeds inoculated with 10^8 CFU/g

[Ca+2].[O-]Cl.[O-]Cl [20,000 ppm, Ca(OCl)2, pH 11.4, calcium hypochlorite]
germination rate of alfalfa seed [1]: 47.3%
S. typhimurium DT 104 counts on seeds ([2]; dried 4 h at 21° C., 0 min of exposure): +^b (Below the minimum detection level by direct plating (<1.7 log CFU/ml), but positive by enrichment culture.)
S. typhimurium DT 104 counts on seeds ([2]; dried 4 h at 21° C., 1 min of exposure): −^c
S. typhimurium DT 104 counts on seeds ([2]; dried 4 h at 21° C., 2 min of exposure): −
S. typhimurium DT 104 counts on seeds ([2]; dried 4 h at 21° C., 5 min of exposure): −
S. typhimurium DT 104 counts on seeds ([2]; dried 4 h at 21° C., 10 min of exposure): −
S. typhimurium DT 104 counts on seeds ([2]; dried 4 h at 21° C., 20 min of exposure): −
S. typhimurium DT 104 counts on seeds ([2]; dried 4 h at 21° C., 30 min of exposure): −
S. typhimurium DT 104 counts on seeds ([2]; dried 4 h at 21° C., 60 min of exposure): −
S. typhimurium DT 104 counts on seeds ([2]; dried 24 h at 21° C., 0 min of exposure): + (Below the minimum detection level by direct plating (<1.7 log CFU/ml), but positive by enrichment culture.)
S. typhimurium DT 104 counts on seeds ([2]; dried 24 h at 21° C., 1 min of exposure): + (Below the minimum detection level by direct plating (<1.7 log CFU/ml), but positive by enrichment culture.)
S. typhimurium DT 104 counts on seeds ([2]; dried 24 h at 21° C., 2 min of exposure): −
S. typhimurium DT 104 counts on seeds ([2]; dried 24 h at 21° C., 5 min of exposure): −
S. typhimurium DT 104 counts on seeds ([2]; dried 24 h at 21° C., 10 min of exposure): −
S. typhimurium DT 104 counts on seeds ([2]; dried 24 h at 21° C., 20 min of exposure): −
S. typhimurium DT 104 counts on seeds ([2]; dried 24 h at 21° C., 30 min of exposure): −
S. typhimurium DT 104 counts on seeds ([2]; dried 24 h at 21° C., 60 min of exposure): −
S. typhimurium DT 104 counts on seeds ([2]; dried 48 h at 21° C., 0 min of exposure): + (Below the minimum detection level by direct plating (<1.7 log CFU/ml), but positive by enrichment culture.)
S. typhimurium DT 104 counts on seeds ([2]; dried 48 h at 21° C., 1 min of exposure): + (Below the minimum detection level by direct plating (<1.7 log CFU/ml), but positive by enrichment culture.)
S. typhimurium DT 104 counts on seeds ([2]; dried 48 h at 21° C., 2 min of exposure): −
S. typhimurium DT 104 counts on seeds ([2]; dried 48 h at 21° C., 5 min of exposure): −
S. typhimurium DT 104 counts on seeds ([2]; dried 48 h at 21° C., 10 min of exposure): + (Below the minimum detection level by direct plating (<1.7 log CFU/ml), but positive by enrichment culture.)
S. typhimurium DT 104 counts on seeds ([2]; dried 48 h at 21° C., 20 min of exposure): −
S. typhimurium DT 104 counts on seeds ([2]; dried 48 h at 21° C., 30 min of exposure): −
S. typhimurium DT 104 counts on seeds ([2]; dried 48 h at 21° C., 60 min of exposure): −
S. typhimurium DT 104 counts on seeds ([2]; dried 72 h at 21° C., 0 min of exposure): −
S. typhimurium DT 104 counts on seeds ([2]; dried 72 h at 21° C., 1 min of exposure): −
S. typhimurium DT 104 counts on seeds ([2]; dried 72 h at 21° C., 2 min of exposure): −
S. typhimurium DT 104 counts on seeds ([2]; dried 72 h at 21° C., 5 min of exposure): −
S. typhimurium DT 104 counts on seeds ([2]; dried 72 h at 21° C., 10 min of exposure): −
S. typhimurium DT 104 counts on seeds ([2]; dried 72 h at 21° C., 20 min of exposure): + (Below the minimum detection level by direct plating (<1.7 log CFU/ml), but positive by enrichment culture.)
S. typhimurium DT 104 counts on seeds ([2]; dried 72 h at 21° C., 30 min of exposure): + (Below the minimum detection level by direct plating (<1.7 log CFU/ml), but positive by enrichment culture.)
S. typhimurium DT 104 counts on seeds ([2]; dried 72 h at 21° C., 60 min of exposure): −
Salmonella level after treatment ([2]; seeds dried 24 h, 48 h, or 72 h, 5 min): undetectable by direct plating, but still detectable by enrichment culture
